Assay results taken from US8101773B2, “Hydroxy methyl phenyl pyrazolyl urea compounds useful in the treatment of cancer” (Bayer Healthcare LLC, priority 2006, dated 2012).
Changes are numbered by the printed parent chain. Counter-ions that a name gives are not always drawn.

Legend:
[1] = tested on: Imatinib-resistant Bcr-Abl mutations; conditions: cited from earlier work
Bcr-Abl kinase = conditions: greater potency than Imatinib; cited from earlier work
Bcr-Abl E255K mutant = conditions: cited from earlier work
[2] = target: T1, mutant Bcr-Abl-T3151 kinase (Homo sapiens, UniProt P00519, T315I); test: Bcr-Abl mutant T315I biochemical assay (MBP phosphorylation, 33P-ATP); conditions: 50 μM ATP
T1 sequence (P00519 242-493 T315I limits assumed): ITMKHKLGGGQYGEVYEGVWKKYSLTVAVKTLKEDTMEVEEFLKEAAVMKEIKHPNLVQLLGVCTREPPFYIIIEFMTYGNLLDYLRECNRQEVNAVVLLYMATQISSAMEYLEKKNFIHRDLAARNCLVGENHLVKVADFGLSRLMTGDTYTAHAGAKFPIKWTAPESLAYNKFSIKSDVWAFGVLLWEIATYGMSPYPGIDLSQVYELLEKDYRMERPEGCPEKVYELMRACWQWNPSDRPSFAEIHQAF
Description: (§1) Bcr-Abl Wild Type and Mutant T315I Biochemical Assay
(§2) Bcr-Abl-wt or mutant Bcr-Abl-T3151 kinase (0.17 nM) was incubated with Myelin Basic Protein (MBP, 2 μM) in assay buffer consisting of 50 mM Tris pH 7.5, 10 mM MgCl2, 1 mM EGTA, 2 mM DTT, 50 μM ATP and 0.4 μCi of ^33P-ATP. Test compounds were added at varying concentrations (final DMSO conc=1%) prior to the addition of ATP. The reaction mixture was incubated for 1 hour at 32° C. The reaction was then stopped by addition of phosphoric acid (final conc=1%) and samples were transferred to filtermats and read in a betaplate reader. Inhibition of MBP phosphorylation by Bcr-Abl-wt or Bcr-Abl-T3151 was analyzed by using a 4 parameter fit and in-house software.

[3] = target: T2, human recombinant c-Met intracellular kinase domain (Homo sapiens, UniProt P08581); test: c-Met biochemical assay, ELISA format; conditions: 0.2 μM ATP
T2 construct: C-terminal HIS-tagged intracellular kinase domain (956 to 1390 amino acids) human recombinant c-Met; His tag (C)
T2 sequence (P08581 956-1390): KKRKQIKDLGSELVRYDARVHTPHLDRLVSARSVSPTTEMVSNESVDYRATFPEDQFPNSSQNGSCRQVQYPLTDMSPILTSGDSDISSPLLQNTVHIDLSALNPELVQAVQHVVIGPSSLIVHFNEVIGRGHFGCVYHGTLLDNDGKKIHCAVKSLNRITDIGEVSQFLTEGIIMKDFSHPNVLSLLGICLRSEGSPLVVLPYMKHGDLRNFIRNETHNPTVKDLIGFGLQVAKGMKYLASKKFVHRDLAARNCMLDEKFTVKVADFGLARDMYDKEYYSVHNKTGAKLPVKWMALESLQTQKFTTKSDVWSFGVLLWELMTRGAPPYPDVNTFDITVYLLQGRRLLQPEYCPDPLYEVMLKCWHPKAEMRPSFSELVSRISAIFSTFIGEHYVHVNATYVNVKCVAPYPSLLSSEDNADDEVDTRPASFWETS
Description: An ELISA format was used for the c-Met biochemical assay. This assay uses the C-terminal HIS-tagged intracellular kinase domain (956 to 1390 amino acids) human recombinant c-Met in 96-well plates. 96-Well plates (Costar #9018) coated with poly(GluTyr) (Sigma # P0275) were used in this assay. The poly(GluTyr) substrate coated on the plate was phosphorylated in a 100 μL reaction volume with 2 nM c-Met protein in an assay buffer (50 mM HEPES pH7.0, 5 mM MnCl2, 0.1% BSA, 0.5 mM sodium orthovanadate, 0.1% β-mercaptoethanol), with 0.2 μM ATP (Sigma #A7699). […] After 25 minutes of incubation, the assay reaction was stopped with 25 μL of 100 mM EDTA. The plates were then washed, and wells were treated with 100 μL of 80 ng/mL anti-4G10-HRP antibody (Upstate #16-105) for 1 h. Plates were washed one final time, and were developed with 100 μL 3,3′,5,5′-TMB (Sigma #T8665), and quenched with 100 μL 1M HCl. Plates were read on a Victor 2 plate reader (Perkin Elmer) and IC50 analysis and calculation were performed using in-house software.

[4] = In vitro tumor cell proliferation assay (Cell Titre-Glo), cell lines of interest; assay type: cell-based; conditions: 72 hours, Cell Titer Glo; read-out: antiproliferative properties (IC50) in one or more cell lines of interest
Source text: In vitro Tumor Cell Proliferation Assay

Bcr-Abl-wt kinase = target: T3, Bcr-Abl-wt kinase (Homo sapiens, UniProt P00519); test: Bcr-Abl wild type biochemical assay (MBP phosphorylation, 33P-ATP); conditions: 50 μM ATP
T3 sequence (P00519 242-493 limits assumed): T1 sequence (P00519 242-493 T315I limits assumed) with I74T
Description: as §1, §2

[5] = target: T4, Flk-1 (murine VEGFR-2) kinase domain (Mus musculus, UniProt P35918); test: Flk-1 (murine VEGFR-2) biochemical assay, TR-FRET; conditions: 10 μM ATP
T4 construct: 7 nM Flk-1 (kinase domain)
T4 sequence (P35918 832-1160 limits assumed): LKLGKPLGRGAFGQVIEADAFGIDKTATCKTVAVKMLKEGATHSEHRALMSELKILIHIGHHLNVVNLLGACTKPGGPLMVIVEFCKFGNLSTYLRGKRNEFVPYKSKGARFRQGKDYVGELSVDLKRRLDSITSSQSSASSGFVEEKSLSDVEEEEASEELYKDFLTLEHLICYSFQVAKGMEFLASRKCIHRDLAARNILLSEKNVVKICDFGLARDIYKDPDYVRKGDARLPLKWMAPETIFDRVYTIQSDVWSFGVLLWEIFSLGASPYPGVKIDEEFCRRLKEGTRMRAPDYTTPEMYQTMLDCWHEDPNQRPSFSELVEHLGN
Description: Flk-1 (Murine VEGFR-2) Biochemical Assay
This assay was performed in 96-well opaque plates (Costar 3915) in the TR-FRET format. Reaction conditions were as follows: 10 μM ATP, 25 nM poly GT-biotin, 2 nM Eu-labelled phospho-Tyr Ab (PY20 Perkin Elmer), 10 nM APC (Perkin Elmer), 7 nM Flk-1 (kinase domain), 1% DMSO, 50 mM HEPES pH 7.5, 10 mM MgCl2, 0.1 mM EDTA, 0.015% BRIJ, 0.1 mg/mL BSA, 0.1% mercapto-ethanol). Reaction was initiated upon addition of enzyme. Final reaction volume in each well was 100 μL. Plates were read at both 615 and […] on a Perkin Elmer Victor V Multilabel counter at about 1.5-2.0 hours after reaction initiation. Signal was calculated as a ratio: (665 nm/615 nm)*10000 for each well.

early phase CML = conditions: patients with early phase CML; cited from earlier work

Cc1cn(-c2cc(NC(=O)c3ccc(C)c(Nc4nccc(-c5cccnc5)n4)c3)cc(C(F)(F)F)c2)cn1 [AMN-107, nilotinib]
inhibition of Imatinib-resistant Bcr-Abl mutations [1]: inhibit most Imatinib-resistant Bcr-Abl mutations, except for T315I
potency of inhibition of Bcr-Abl kinase activity relative to Imatinib (Bcr-Abl kinase): 20 fold
inhibition of E255K mutant in a biochemical assay (Bcr-Abl E255K mutant): somewhat weak inhibition

CNC(=O)c1cc(Oc2ccc(NC(=O)Nc3cc(C(C)(C)C)nn3-c3cccc(COC(=O)[C@H](NC(=O)OCC4c5ccccc5-c5ccccc54)C(C)C)c3)c(F)c2)ccn1 [Example 8, 3-(3-tert-Butyl-5-{[(2-fluoro-4-{[2-(methylcarbamoyl)pyridin-4-yl]oxy}phenyl)carbamoyl]amino}-1H-pyrazol-1-yl)benzyl-N-[(9H-fluoren-9-ylmethoxy)carbonyl]D valinate]
IC50 [2]: < 20000 nM
IC50 [3]: < 20000 nM

CNC(=O)c1cc(Oc2ccc(NC(=O)Nc3cc(C(C)(C)C)nn3-c3cccc(COC(=O)[C@H](N)C(C)C)c3)c(F)c2)ccn1 [Example 9, 3-(3-tert-Butyl-5-{[(2-fluoro-4-{[2-(methylcarbamoyl)pyridin-4-yl]oxy}phenyl)-carbamoyl]amino}-1H-pyrazol-1-yl)benzyl D-valinate]
IC50 [4]: < 5 µM
IC50 [2]: < 1000 nM
IC50 (Bcr-Abl-wt kinase): < 1000 nM
IC50 [5]: < 1000 nM
IC50 [3]: < 1000 nM

CNC(=O)c1cc(Oc2ccc(NC(=O)Nc3cc(C(C)(C)C)nn3-c3cccc(COC(=O)[C@@H](N)C(C)C)c3)c(F)c2)ccn1 [Example 10, 3-(3-tert-Butyl-5-{[(2-fluoro-4-{[2-(methylcarbamoyl)pyridin-4-yl]oxy}-phenyl)carbamoyl]amino}-1H-pyrazol-1-yl)benzyl L-valinate]
IC50 [2]: < 1000 nM
IC50 (Bcr-Abl-wt kinase): < 1000 nM
IC50 [5]: < 1000 nM
IC50 [3]: < 1000 nM

CNC(=O)c1cc(Oc2ccc(NC(=O)Nc3cc(C(C)(C)C)nn3-c3cccc(COC(C)=O)c3)c(F)c2)ccn1 [Example 11, 3-(3-tert-Butyl-5-{[(2-fluoro-4-{[2-(methylcarbamoyl)pyridin-4-yl]oxy}-phenyl)carbamoyl]amino}-1H-pyrazol-1-yl)benzyl acetate]
IC50 [4]: < 5 µM
IC50 [2]: < 1000 nM
IC50 (Bcr-Abl-wt kinase): < 1000 nM
IC50 [5]: < 1000 nM
IC50 [3]: < 1000 nM

CNC(=O)c1cc(Oc2ccc(NC(=O)Nc3cc(C(C)(C)C)nn3-c3cccc(COP(=O)(OC(C)(C)C)OC(C)(C)C)c3)c(F)c2)ccn1 [Example 12, Di-tert-butyl 3-(3-tert-butyl-5-{[(2-fluoro-4-{[2-(methylcarbamoyl)pyridin-4-yl]oxy}phenyl)carbamoyl]amino}-1H-pyrazol-1-yl)benzyl phosphate]
IC50 [4]: < 5 µM
IC50 [2]: < 20000 nM
IC50 [3]: < 20000 nM

CNC(=O)c1cc(Oc2ccc(NC(=O)Nc3cc(C(C)(C)C)nn3-c3cccc(COP(=O)(O)O)c3)c(F)c2)ccn1 [Example 13, 3-(3-tert-Butyl-5-{[(2-fluoro-4-{[2-(methylcarbamoyl)pyridin-4-yl]oxy}-phenyl)carbamoyl]amino}-1H-pyrazol-1-yl)benzyl dihydrogen phosphate dihydrochloride]
IC50 [4]: < 5 µM

CNC(=O)c1cc(Oc2ccc(NC(=O)Nc3cc(C(C)(C)C)nn3-c3cccc(COC(=O)CCC(=O)O)c3)c(F)c2)ccn1 [Example 14, 4-{[3-(3-tert-Butyl-5-{[(2-fluoro-4-{[2-(methylcarbamoyl)pyridin-4-yl]oxy}-phenyl)carbamoyl]amino}-1H-pyrazol-1-yl)benzyl]oxy}-4-oxobutanoic acid]
IC50 [4]: < 5 µM
IC50 [2]: < 1000 nM
IC50 (Bcr-Abl-wt kinase): < 1000 nM
IC50 [5]: < 1000 nM
IC50 [3]: < 1000 nM

CNC(=O)c1cc(Oc2ccc(NC(=O)Nc3cc(C(C)(C)C)nn3-c3cccc(COC(=O)COC)c3)c(F)c2)ccn1 [Example 15, 3-(3-tert-Butyl-5-{[(2-fluoro-4-{[2-(methylcarbamoyl)pyridin-4-yl]oxy}phenyl)carbamoyl]amino}-1H-pyrazol-1-yl)benzyl methoxyacetate]
IC50 [2]: < 1000 nM
IC50 (Bcr-Abl-wt kinase): < 1000 nM
IC50 [5]: < 1000 nM
IC50 [3]: < 1000 nM

CCC(=O)OCc1cccc(-n2nc(C(C)(C)C)cc2NC(=O)Nc2ccc(Oc3ccnc(C(=O)NC)c3)cc2F)c1 [Example 16, 3-(3-tert-butyl-5-{[(2-fluoro-4-{[2-(methylcarbamoyl)pyridin-4-yl]oxy}phenyl)carbamoyl]amino}-1H-pyrazol-1-yl)benzyl propionate]
IC50 [2]: < 1000 nM
IC50 (Bcr-Abl-wt kinase): < 1000 nM
IC50 [5]: < 1000 nM
IC50 [3]: < 1000 nM

CNC(=O)c1cc(Oc2ccc(NC(=O)Nc3cc(C(C)(C)C)nn3-c3cccc(COC(=O)CC(C)C)c3)c(F)c2)ccn1 [Example 17, 3-(3-tert-Butyl-5-{[(2-fluoro-4-{[2-(methylcarbamoyl)pyridin-4-yl]oxy}phenyl)carbamoyl]amino}-1H-pyrazol-1-yl)benzyl 3-methylbutanoate]
IC50 [2]: < 20000 nM
IC50 [3]: < 20000 nM

Cc1ccc(NC(=O)c2ccc(CN3CCN(C)CC3)cc2)cc1Nc1nccc(-c2cccnc2)n1 [Imatinib]
degree of response at both haematological and cytogenetic levels (early phase CML): greater than 90%
